Experimental findings from US20230416849A1, “METHODS FOR DETECTING VIRAL RNA USING ATP-RELEASING NUCLEOTIDES” (priority 2020, published 2023) are described below.

The structures appear in SMILES notation.

For the test, the target named is luciferase (Photinus pyralis, UniProt P08659). Put plainly: Reactivity of apyrase ATP-depleted nucleotide stocks with luciferase (background signal). In kind it is biochemical. The text has this:
ARNs were investigated as a source of background signal. There are two possible sources of background resulting from ARNs: (1) residual ATP contamination from the insufficient purification, and (2) the potential for these nucleotides to be accepted as substrates by luciferase. While ATP contamination can be removed, the kinetics of a nucleotide to react with luciferase is intrinsic to the molecule and thus much more difficult to manipulate. Apyrase was used to deplete nucleotide stocks of ATP in order to compare their reactivity with luciferase. […] However, dCp4A had high levels of ATP contamination.

luciferase, sequence (P08659 whole entry): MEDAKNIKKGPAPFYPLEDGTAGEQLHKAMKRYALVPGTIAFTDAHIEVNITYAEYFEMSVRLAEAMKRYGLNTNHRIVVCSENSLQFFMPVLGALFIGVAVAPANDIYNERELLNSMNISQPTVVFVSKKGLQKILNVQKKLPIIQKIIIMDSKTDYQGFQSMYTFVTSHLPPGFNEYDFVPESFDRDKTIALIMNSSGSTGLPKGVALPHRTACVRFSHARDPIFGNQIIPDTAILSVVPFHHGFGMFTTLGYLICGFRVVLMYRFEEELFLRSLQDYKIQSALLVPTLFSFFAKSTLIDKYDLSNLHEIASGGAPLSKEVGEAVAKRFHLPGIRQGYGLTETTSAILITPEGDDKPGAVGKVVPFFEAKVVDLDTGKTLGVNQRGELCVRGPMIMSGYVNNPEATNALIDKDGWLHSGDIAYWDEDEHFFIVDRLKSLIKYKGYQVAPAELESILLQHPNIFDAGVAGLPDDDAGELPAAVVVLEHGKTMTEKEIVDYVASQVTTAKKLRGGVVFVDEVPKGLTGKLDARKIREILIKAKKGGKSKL

`Nc1nc2c(ncn2[C@H]2C[C@H](O)[C@@H](COP(=O)(O)OP(=O)(O)OP(=O)(O)OP(=O)(O)OC[C@H]3O[C@@H](n4cnc5c(N)ncnc54)[C@H](O)[C@@H]3O)O2)c(=O)[nH]1` [dGp4A, deoxyguanosine-5′-tetraphosphate-P4-5′-adenosine]: the “activity with luciferase compared with pyrimidine counterparts (dCp4A and dTp4A)” value is recorded as “higher activity”.

In the case of `Nc1ncnc2c1ncn2[C@@H]1O[C@H](COP(=O)(O)OP(=O)(O)OP(=O)(O)OP(=O)(O)OC[C@H]2O[C@@H](n3cnc4c(N)ncnc43)C[C@@H]2O)[C@@H](O)[C@H]1O` [dAp4A, deoxyadenosine-5′-tetraphosphate-P4-5′-adenosine], the “activity with luciferase compared with pyrimidine counterparts (dCp4A and dTp4A)” value was “higher activity”.
